In article PMC9658513, “Discovery of Compounds That Selectively Repress the Amyloidogenic Processing of the Amyloid Precursor Protein: Design, Synthesis and Pharmacological Evaluation of Diphenylpyrazoles” (International Journal of Molecular Sciences, 2022):
Read-outs that look alike come from different tables or passages of the source.

What was measured:
Aβ1–40 peptide secretion = assay: Aβ1–40 secretion in cell medium by ELISA; type: cell-based, human; conditions: SY5Y-APP^WT cells, 24 h treatment, mean ± SD of at least three experiments in triplicate, read-out: Aβ1–40 IC50
Experimental: (§1) The final and selected intermediate compounds were evaluated for their ability to modulate APP processing in the SH-SY5Y human neuroblastoma cell line stably expressing the neuronal isoform of human wild-type APP^695 (SY5Y-APP^WT), a well-established model for the study of APP metabolism. APP carboxy-terminal fragments (αCTFs and AICD) levels were assessed by Western blotting (WB). The effect of the reference and test compounds on αCTFs and AICD is expressed as the intensity of corresponding WB bands. The concentration of compounds able to increase 20-times αCTFs and AICD (C20) when compared to the control condition was calculated. Selected compounds were also evaluated for their ability to modulate the secretion of soluble APP fragments (sAPPα and sAPPβ). Aβ1–x levels (Aβ1–40 and Aβ1–42) after treatment with the reference and tested compounds were measured in the cell media by ELISA (Table 1). […] Selected hit compounds were then further evaluated for their ability to decrease the level of N-truncated Aβ peptides (Aβx–38, Aβx–40, and Aβx–42).
(§2) The human neuroblastoma cell line SY5Y-APP^695WT was maintained in Dulbecco’s modified Eagle medium (DMEM, high glucose, pyruvate—GIBCO, Life Technologies, Carlsbad, CA, USA) supplemented with 10% fetal bovine serum, 2 mM L-glutamine, 1 mM non-essential amino acids and penicillin/streptomycin (GIBCO, Life Technologies, Carlsbad, CA, USA) at 37 °C in a 5% CO2 humidified incubator [36]. For compound treatment, a 10 mM stock solution was diluted in freshly supplemented DMEM medium to obtain the precise final concentration of the drug. Cells were plated at a density of 5 × 10^5 cells per well into 12-well plates and cultured with 1 mL supplemented DMEM cell medium for 24 h before compound exposure. The following day, the cell medium was replaced with fresh medium containing the compounds diluted at the indicated concentrations. Cells were treated for 24 h. At the end of the treatments, the cell medium was collected and kept at −80 °C until use, cells were rinsed once with PBS and extracted in 100 µL of Laemmli buffer (10 mM Tris, 20% glycerol, and 2% sodium dodecyl sulfate) using a cell-scraper. The cell lysate was further sonicated (30 pulses of 0.5 s, 60 Hz) for 5 min. Total protein concentration was determined using the Pierce BCA Protein Assay Kit (Thermo Scientific, Waltham, MA, USA) according to the manufacturer’s instructions. Samples were stored at −80 °C until analysis.
(§3) Conditioned media of SY5Y-APP^695WT collected at the end of treatments were centrifuged at 1000× g for 5 min to eliminate cell debris.
(§4) Aβ1–40/Aβ1–42 peptides, Aβx–38/Aβx–40/Aβx–42, and sAPPα/sAPPβ concentrations in pg/mL were determined, respectively, using amyloid-beta 40 and 42 Human ELISA Kits (Invitrogen), the V-PLEX Plus Aβ Peptide Panel 1 (4G8) Kit (Meso Scale Diagnostics, MSD R©, Rockville, MD, USA), and the sAPPα/sAPPβ Multiplex Kit (Meso Scale Diagnostics, MSD R©, Rockville, MD, USA) according to the manufacturer’s instructions.

Aβ1–42 peptide secretion = assay: Aβ1–42 secretion in cell medium by ELISA; type: cell-based, human; conditions: SY5Y-APP^WT cells, 24 h treatment, mean ± SD of at least three experiments in triplicate
Experimental: as §1, §2, §3, §4

[1] = test system: αCTF (APP carboxy-terminal fragment); assay: αCTF level by Western blotting in SY5Y-APP^WT cells; type: cell-based, human; conditions: concentration increasing αCTF 20-fold vs untreated control, SY5Y-APP^WT cells, read-out: αCTF (C20)
Experimental: as §1, §2
(§5) Cell protein lysates were prepared for Western blot analysis by diluting the sample with 1 volume of NuPAGE® lithium dodecyl sulfate (LDS) 2X sample buffer supplemented with 20% NuPAGE® sample reducing agents (Invitrogen). Samples were heated for 10 min at 100 °C. Ten µg of total proteins per well were loaded onto precast 4–12% Criterion XT Bis-Tris polyacrylamide gels (Bio-Rad) and electrophoresis was achieved after applying a tension of 150 V for 90 min using a Criterion electrophoresis cell with the NuPAGE® MOPS SDS running buffer (1X). Proteins were transferred to a nitrocellulose membrane of […] pore size (G&E Healthcare, Madison, WI, USA) using the Criterion blotting system and applying a tension of 100 V for 45 min. To resolve proteins of low molecular weights such as carboxy-terminal fragments of APP, 12% Criterion XT Bis-Tris polyacrylamide gels (Bio-Rad, Hercules, CA, USA) were used, and electrophoresis was performed for 70 min at 150 V in a NuPAGE® MES SDS running buffer (1X). Proteins were transferred to a nitrocellulose membrane of 0.2 µm pore size (G&E Healthcare, Madison, WI, USA) at 100 V for 40 min. Molecular weight calibration was achieved using molecular weight markers (Novex and Magic Marks, Life Technologies, Carlsbad, CA, USA). Protein transfer and quality were determined by a reversible Ponceau Red coloration (0.2% xylidine Ponceau Red and 3% trichloroacetic acid). […]

[2] = test system: AICD (APP intracellular domain); assay: AICD level by Western blotting in SY5Y-APP^WT cells; type: cell-based, human; conditions: concentration increasing AICD 20-fold vs untreated control, read-out: AICD (C20)
Experimental: as §1, §2, §5

SY5Y-APP^695WT cells = assay: in vitro; type: cell-based, human
Experimental: (§6) Cytotoxicity was measured using 3-(4,5-dimethylthiazol-2-yl)-5-(3-carboxymethoxyphenyl)-2-(4-sulfophenyl)-2H-tetrazolium (MTS) tests. SY5Y-APP^695WT cells were plated in a 96-well plate at 3 × 10^4 cells per well and allowed to attach for 24 h. Cells were then incubated for 72 h with 100 µL of DMEM with 10% SVF containing (or not) the defined concentration of drugs. Cytotoxicity was determined by using the colorimetric MTS assay (Cell Titer 96® Aqueous One Solution Cell Proliferation Assay-MTS Promega, Madison, WI, USA) according to the manufacturer’s instructions. Absorbance was read at 490 nm.

p62/LC3 = assay: Ratio between p62 and LC3 expression levels; type: cell-based, human; conditions: 24 h, SY5Y-APP^wt cells
Source text: Compounds from both series were selected to first determine the potential relationship between the repression of Aβ1–x production and the increased expression of LC3 and p62. […] We then also considered the ratio between the p62 and LC3 expression levels.
Figure 3 Effect of compounds 24, 33, 34, 57, 65, 67, 70, and 71 on the autophagic flux in SY5Y-APP^wt cells. […] Cell lysates were immunolabeled with the following antibodies: p62 (a), LC3 (b), and β-actin. Statistical significance was set at * p < 0.05, ** p < […], *[…], **** p < 0.0001, and ns as not significant.

in vitro = type: cell-based, human; conditions: human
Experimental: as §6

LC3 = assay: Autophagic flux: LC3-I lipidation into LC3-II by Western blot; type: cell-based; conditions: Homo sapiens, 24 h, 0.1 µM (100 nM), SY5Y-APP^wt cells, vs control
Source text: (§7) Previous work dedicated to compounds of family C [22] has underlined the effect of our compounds on autophagic flux and the lysosomal degradation pathways. More precisely, the role of the amino side chains and their number was highlighted. Therefore, we assessed whether the activity of compounds involved the modulation of lysosomal activities toward the accumulation of APP-CTFs and AICD. Thus, we studied the effect of a selection of compounds on the autophagic flux, more particularly, we evaluated the effect of compounds 24, 33, 34, 57, 65, 67, 70, and 71 on two markers associated with autophagy: p62 and LC3-I lipidation into LC3-II. To the previous selection of efficient compounds decreasing Aβ1–x production and increasing CTFα and AICD, we added compound 65 with no cytotoxicity at 100 µM. As a comparison, we also selected compound 57 with a hydroxymethyl substituent as a control. In addition to CQ, bafilomycin A, a well-known inhibitor of autophagic flux, was used as a control. Treatment with compounds 67 and 71 induced an increase in p62 expression by 2.5 and 4-fold, respectively, compared to the control condition (Figure 3). […] An increase in the two markers was also observed with compound 57, but to a smaller extent (1.7-fold for p62 and 2-fold for LC3-I/LC3-II).
as §2
as §5, with “USA).” for “USA). Protein transfer and quality were determined by a reversible Ponceau Red coloration (0.2% xylidine Ponceau Red and 3% trichloroacetic acid).”

p62 = assay: Autophagic flux: p62 expression by Western blot; type: cell-based, human; conditions: Homo sapiens, 24 h, 0.1 µM (100 nM), SY5Y-APP^wt cells, vs control
Source text: as §7, §2
as §5, with “USA).” for “USA). Protein transfer and quality were determined by a reversible Ponceau Red coloration (0.2% xylidine Ponceau Red and 3% trichloroacetic acid).”

Row | IC50 (Aβ1–40 peptide secretion) [µM] | IC50 (Aβ1–42 peptide secretion) [µM] | IC50 (Aβ1–40 peptide secretion; Homo sapiens) [µM] | IC50 (Aβ1–42 peptide secretion; Homo sapiens) [µM] | Molecule | EC (20-fold increase) [1] [µM] | EC (20-fold increase) [2] [µM] | CC50 (SY5Y-APP^695WT cells) [µM] | EC (20-fold increase) ([1]; Homo sapiens) [µM] | EC (20-fold increase) ([2]; Homo sapiens) [µM] | CC50 at 72 h (in vitro) [µM] | further results
1 | 4.2 ± 0.1 | 6.1 ± 0.3 | – | – | N′-[[4-[4-(Dimethylaminomethyl)-3-[4-[3-(dimethylamino)propyl]phenyl] Pyrazol-1-yl]phenyl]methyl]-N,N,N′-trimethyl-propane-1,3-diamine [Compound 32] | 1.1 | 1.8 | > 100 | – | – | – | –
2 | 12.4 ± 0.6 | 13.2 ± 0.2 | – | – | N′-[[3-[4-[3-(Dimethylamino)propyl]-3-[4-[3-(dimethylamino)propyl]phenyl] Pyrazol-1-yl]phenyl]methyl]-N,N,N′-trimethyl-propane-1,3-diamine [Compound 35] | 5.1 | 5.4 | > 100 | – | – | – | p62/LC3 (p62/LC3; compound at 3 µM): ~1
3 | – | – | 3.4 ± 0.1 | 5 ± 0.1 | CN(C)CCCc1ccc(-c2nn(-c3ccc(CN4CCN(C)CC4)cc3)cc2CCCN(C)C)cc1 [Compound 29, 3-[4-[4-[3-(Dimethylamino)propyl]-1-[4-[(4-methylpiperazin-1-yl) Methyl]phenyl]pyrazol-3-yl]phenyl]-N,N-dimethyl-propan-1-amine] | – | – | – | 1 | 2 | > 100 | –
4 | – | – | – | – | CO/C1=C\C(C)=C\[C@@H](C)[C@@H](O)[C@@H](C)C/C(C)=C/C=C/[C@H](OC)[C@@H]([C@@H](C)[C@@H](O)[C@H](C)[C@@]2(O)C[C@@H](O)[C@H](C)[C@@H](C(C)C)O2)OC1=O [Baf A1, bafilomycin A1, reference compound] | – | – | – | – | – | – | fold induction at 0.1 µM (LC3): 4.68; fold induction at 0.1 µM (p62): 1.48; p62/LC3 (p62/LC3; 0.1 µM (100 nM)): 0.31
5 | – | – | 1.9 ± 0.1 | 2.4 ± 0.7 | CN(C)CCCc1ccc(-c2nn(-c3ccc(CN4CCN(C)CC4)cc3)cc2CN(C)C)cc1 [Compound 28, 3-[4-[4-(Dimethylaminomethyl)-1-[4-[(4-methylpiperazin-1-yl)methyl] Phenyl]pyrazol-3-yl]phenyl]-N,N-dimethyl-propan-1-amine] | – | – | – | 1.2 | 1.7 | > 100 | –
6 | – | – | 6.2 ± 0.6 | 6.5 ± 1.1 | CN(C)CCCc1ccc(-c2nn(-c3ccc(CO)cc3)cc2CN(C)C)cc1 [Compound 16, [4-[4-(Dimethylaminomethyl)-3-[4-[3-(dimethylamino)propyl]phenyl] Pyrazol-1-yl]phenyl]methanol] | – | – | – | 3.6 | 4.6 | 23 | –
